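Results reflect a 48-hour exposure of cells in 96-well plates to compound at five concentrations. The concentration for 50% growth inhibition is given as GI50.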 Active and inactive are the calls of the source. Cut-off read from the data, not from the text of the source: active = GI50 up to about 1.1 µM and inactive = higher.
Legend:
Experiment in all cases: inhibition of tumour cell growth, NCI panel, 48 h
786-0 = tested on: 786-0
A549 = tested on: A549
ACHN = tested on: ACHN
BT-549 = tested on: BT-549
CAKI-1 = tested on: CAKI-1
CCRF-CEM = tested on: CCRF-CEM
COLO 205 = tested on: COLO 205
DU-145 = tested on: DU-145
EKVX = tested on: EKVX
HCC 2998 = tested on: HCC 2998
HCT-116 = tested on: HCT-116
HCT-15 = tested on: HCT-15
HL-60 = tested on: HL-60
HOP-62 = tested on: HOP-62
HOP-92 = tested on: HOP-92
HT-29 = tested on: HT-29
Hs-578T = tested on: Hs-578T
IGROV-1 = tested on: IGROV-1
K562 = tested on: K562
KM12 = tested on: KM12
LOX IMVI = tested on: LOX IMVI
M14 = tested on: M14
MCF7 = tested on: MCF7
MDA-MB-231 = tested on: MDA-MB-231
MDA-MB-435 = tested on: MDA-MB-435
MDA-N = tested on: MDA-N
MOLT-4 = tested on: MOLT-4
Malme-3M = tested on: Malme-3M
NCI-H226 = tested on: NCI-H226
NCI-H23 = tested on: NCI-H23
NCI-H460 = tested on: NCI-H460
NCI-H522 = tested on: NCI-H522
NCI/ADR-RES = tested on: NCI/ADR-RES
OVCAR-4 = tested on: OVCAR-4
OVCAR-8 = tested on: OVCAR-8
PC-3 = tested on: PC-3
RPMI-8226 = tested on: RPMI-8226
RXF 393 = tested on: RXF 393
SF-268 = tested on: SF-268
SF-295 = tested on: SF-295
SF-539 = tested on: SF-539
SK-MEL-28 = tested on: SK-MEL-28
SK-MEL-5 = tested on: SK-MEL-5
SK-OV-3 = tested on: SK-OV-3
SN12C = tested on: SN12C
SNB-19 = tested on: SNB-19
SNB-75 = tested on: SNB-75
SR = tested on: SR
SW-620 = tested on: SW-620
T47D = tested on: T47D
TK-10 = tested on: TK-10
UACC-257 = tested on: UACC-257
UACC-62 = tested on: UACC-62
UO-31 = tested on: UO-31

Measured: GI50

CC(=O)OCc1ccc(-c2nc(C#N)c(N)o2)o1
> 10 µM: HCT-15
inactive: 786-0 > 10 µM | A549 > 10 µM | ACHN > 10 µM | BT-549 > 10 µM | CAKI-1 > 10 µM | CCRF-CEM > 10 µM | COLO 205 > 10 µM | DU-145 > 10 µM | EKVX > 10 µM | HCC 2998 > 10 µM | HCT-116 > 10 µM | HL-60 > 10 µM | HOP-62 > 10 µM | HOP-92 > 10 µM | HT-29 > 10 µM | Hs-578T > 10 µM | IGROV-1 > 10 µM | K562 > 10 µM | KM12 > 10 µM | LOX IMVI > 10 µM | M14 > 10 µM | MCF7 > 10 µM | MDA-MB-231 > 10 µM | MDA-MB-435 > 10 µM | MDA-N > 10 µM | MOLT-4 > 10 µM | Malme-3M > 10 µM | NCI-H226 > 10 µM | NCI-H23 > 10 µM | NCI-H460 > 10 µM | NCI-H522 > 10 µM | NCI/ADR-RES > 10 µM | OVCAR-4 > 10 µM | OVCAR-8 > 10 µM | PC-3 > 10 µM | RPMI-8226 > 10 µM | RXF 393 > 10 µM | SF-268 > 10 µM | SF-295 > 10 µM | SF-539 > 10 µM | SK-MEL-28 > 10 µM | SK-MEL-5 > 10 µM | SK-OV-3 > 10 µM | SN12C > 10 µM | SNB-19 > 10 µM | SNB-75 > 10 µM | SR > 10 µM | SW-620 > 10 µM | T47D > 10 µM | TK-10 > 10 µM | UACC-257 > 10 µM | UACC-62 > 10 µM | UO-31 > 10 µM

From ChEMBL document CHEMBL1201862, “PubChem BioAssay data set” (2004)
